The text below walks through data of patent US20240067651A1 (Biohaven Therapeutics Ltd., priority 2019, published 2024).

Series [1] is described as follows: Stability in Simulated Gastric Fluid (SGF). Format: in vitro ADME. On the set-up: key: % parent compound remaining relative to 0-minute sample. The protocol: (§1) Simulated gastric fluid (SGF) and Simulated intestinal fluid (SIF) stability are in vitro metrics indicating the ability of a compound to pass through the gastrointestinal tract […] or completely digested. An undigested or nearly undigested compound will usually survive gut transit long enough to be absorbed into the systemic circulation. Greater than 50% remaining intact compound at 1 hour indicates a relatively stable molecule that will likely be absorbed in the gut.
(§2) For each test compound, samples at a final concentration of 2 μg/mL are prepared in respective blank simulated gastric fluid with pepsin (pH 1.2) and simulated intestinal fluid with pancreatin (pH 6.8). All samples are incubated at 37° C. on a 150-rpm orbital shaker, and an aliquot is removed at predetermined time points (0 to 60 minutes). Samples are precipitated with three volumes of acetonitrile containing propranolol as internal standard, and centrifuged for 10 min at 2,000 g before LC-MS/MS analysis of the supernatant solutions. Percent parent compound remaining is determined relative to 0-minute incubation samples. If a sufficient number of time points are available, the degradation half-life is calculated based on the natural log of % compound remaining vs. time plot.

A short description of another series: Plasma Stability. Format: in vitro ADME, human. The protocol:
Plasma stability estimates the ability of a compound to remain intact in the blood. For prodrugs that are intended to be hydrolyzed by plasma enzymes a certain level of instability in plasma indicates the compound is probably breaking down to the parent drug. A stability range of 25-75% remaining parent compound after 1 hour in plasma indicates the compound is likely breaking down to the parent drug molecule and a patient will be exposed to this parent molecule.
Assessment of plasma stability was carried out by individual incubations of drug candidates in fresh human plasma at a concentration of 1 μM for 1 hour at 37° C. After which, the samples were de-proteinized by addition of 2 volumes of acetonitrile containing 0.1% formic acid and internal standard, vortex mixed for 2 minutes and centrifuged at 4,000 rpm for 10 minutes to pellet precipitated protein. The resulting supernatant containing the drug candidates was diluted 5-fold with water containing 0.1% formic acid and submitted to LCMS/MS analysis. All determinations were done in triplicate. Plasma stability was expressed as percent of control remaining.
See Pelletier et al. ACS Med. Chem. Lett. 2018, 9, 752-756.

A short description of series [2]: Stability in Simulated Intestinal Fluid (SIF). The format is in vitro ADME. On the set-up: key: % parent compound remaining relative to 0-minute sample. As to the method:
as §1, §2

The mark [3] stands for this setting: simulated gastric fluid, at 1 h.
The mark [4] stands for this setting: simulated intestinal fluid, at 1 h.
[5] abbreviates: bare number, unit or time not given.
The mark [6] stands for this setting: simulated gastric fluid, remaining at 1 h.
The mark [7] stands for this setting: simulated intestinal fluid, remaining at 1 h.

On to `Cc1ccccc1N(C)C(=O)OCn1ccc2c1c(=O)[nH]c(=S)n2CCOC(C)C` [Example 251], for which the SGF in series [1] (setting [3]) was 99% remaining. For the same compound, the “human Plasma stability” value in the series “Plasma Stability” (human plasma, at 1 h) stood at 96% remaining. Also, in series [2] (setting [4]), the SIF is 100% remaining.

Take `Cc1cccc(N(C)C(=O)OCn2ccc3c2c(=O)[nH]c(=S)n3CCOC(C)C)c1` [Example 252]: the SGF in series [1] (setting [3]) is on record as 100% remaining. In “Plasma Stability” (human plasma, at 1 h), the “human Plasma stability” value is listed as 100% remaining. In addition, the SIF in series [2] (setting [4]) is reported as 80% remaining.

For the compound `CC(C)OCCn1c(SCOC(=O)[C@@H](N)Cc2ccccc2)nc(=O)c2[nH]ccc21.O=C(O)C(F)(F)F` [Example 310, trifluoroacetic acid ({4-oxo-1-[2-(propan-2-yloxy)ethyl]-1H,4H,5H-pyrrolo[3,2-d]pyrimidin-2-yl}sulfanyl)methyl (2S)-2-amino-3-phenylpropanoate], in series [1] (% remaining @ 1 h), the SGF was 99% @ 1 h. The “human Plasma stability” value in the series “Plasma Stability” (% remaining @ 1 h) amounted to 4% @ 1 h. Besides, the SIF in series [2] (% remaining @ 1 h) is listed as 32% @ 1 h.

`CC(C)C[C@@H](N)C(=O)OCn1ccc2c1c(=O)[nH]c(=S)n2CCOC(C)C.O=C(O)C(F)(F)F` [Example 324, trifluoroacetic acid {4-oxo-1-[2-(propan-2-yloxy)ethyl]-2-sulfanylidene-1H,2H,3H,4H,5H-pyrrolo[3,2-d]pyrimidin-5-yl}methyl (2R)-2-amino-4-methylpentanoate]: the SGF in series [1] (% remaining @ 1 h) is recorded as 98%@ 1 h. Also, the “human Plasma stability” value in “Plasma Stability” (% remaining @ 1 h) was determined as 1%@ 1 h. Also, the SIF in series [2] (% remaining @ 1 h) is on record as 24%@ 1 h.

`CC(C)OCCn1c(=S)[nH]c(=O)c2c1ccn2COC(=O)CCCCOC(=O)CNC(=O)OC(C)(C)C` [Example 328, {4-oxo-1-[2-(propan-2-yloxy)ethyl]-2-sulfanylidene-1H,2H,3H,4H,5H-pyrrolo[3,2-d]pyrimidin-5-yl}methyl 5-[(2-{[(tert-butoxy)carbonyl]amino}acetyl)oxy] pentanoate]: the SGF in series [1] (% remaining @ 1 h) is 97%@ 1 h. Also, the “human Plasma stability” value in the series “Plasma Stability” (% remaining @ 1 h) is 11%@ 1 h. Also, in series [2] (% remaining @ 1 h), the SIF is recorded as 6%@ 1 h.

`CC(C)OCCn1c(=S)n(COC(=O)CCCCOC(=O)[C@@H](N)C(C)C)c(=O)c2c1ccn2COC(=O)CCCCOC(=O)[C@@H](N)C(C)C.O=C(O)C(F)(F)F.O=C(O)C(F)(F)F` [Example 337, bis(trifluoroacetic acid) (3-{[(5-{[(2S)-2-amino-3-methylbutanoyl]oxy}pentanoyl)oxy]methyl}-4-oxo-1-[2-(propan-2-yloxy)ethyl]-2-sulfanylidene-1H,2H,3H,4H,5H-pyrrolo[3,2-d]pyrimidin-5-yl)methyl 5-{[(2S)-2-amino-3-methylbutanoyl]oxy}pentanoate]: in series [1] (setting [5]), the SGF is 98. In addition, the “human Plasma stability” value in the series “Plasma Stability” (% remaining @ 1 h) worked out at 60% remaining. Besides, in series [2] (setting [5]), the SIF is on record as 30.

As for `CC(C)OCCn1c(=S)[nH]c(=O)c2c1ccn2COC(=O)CCCCOC(=O)[C@H](N)C(C)C.O=C(O)C(F)(F)F` [Example 338, trifluoroacetic acid {4-oxo-1-[2-(propan-2-yloxy)ethyl]-2-sulfanylidene-1H,2H,3H,4H,5H-pyrrolo[3,2-d]pyrimidin-5-yl}methyl 5-{[(2R)-2-amino-3-methylbutanoyl]oxy}pentanoate], the SGF in series [1] (setting [5]) is given as 99. Besides, the “human Plasma stability” value in “Plasma Stability” (% remaining @ 1 h) is recorded as 4% remaining. Also, the SIF in series [2] (setting [5]) is 3.

Take `CC(C)OCCn1c(=S)[nH]c(=O)c2c1ccn2COC(=O)OCCOCCN.O=C(O)C(F)(F)F` [Example 354, trifluoroacetic acid 2-(2-aminoethoxy)ethyl {4-oxo-1-[2-(propan-2-yloxy)ethyl]-2-sulfanylidene-1H,2H,3H,4H,5H-pyrrolo[3,2-d]pyrimidin-5-yl}methyl carbonate]: in series [1] (setting [6]), the SGF is listed as 99% remaining. The “human Plasma stability” value in “Plasma Stability” (human plasma, remaining at 1 h) is given as 1% remaining. The SIF in series [2] (setting [7]) is on record as 3% remaining.

For `CC(C)OCCn1c(SCOC(=O)N(C)CCOCCN)nc(=O)c2[nH]ccc21.O=C(O)C(F)(F)F` [Example 380, trifluoroacetic acid ({4-oxo-1-[2-(propan-2-yloxy)ethyl]-1H,4H,5H-pyrrolo[3,2-d]pyrimidin-2-yl}sulfanyl) methyl N-[2-(2-aminoethoxy)ethyl]-N-methylcarbamate], the SGF in series [1] (setting [6]) is reported as 100% remaining. Besides, the “human Plasma stability” value in the series “Plasma Stability” (human plasma, remaining at 1 h) worked out at 85% remaining. The SIF in series [2] (setting [7]) was 99% remaining.

As to `CC(C)OCCn1c(SCOC(=O)N(C)CCOCCN)nc(=O)c2c1ccn2COC(=O)N(C)CCOCCN.O=C(O)C(F)(F)F.O=C(O)C(F)(F)F` [Example 382, bis(trifluoroacetic acid) (2-{[({[2-(2-aminoethoxy)ethyl](methyl)carba-moyl}oxy)methyl]sulfanyl}-4-oxo-1-[2-(propan-2-yloxy)ethyl]-1H,4H,5H-pyrrolo[3,2-d]pyrimidin-5-yl)methyl N-[2-(2-aminoethoxy)ethyl]-N-methylcarbamate], in series [1] (setting [6]), the SGF is reported as 100% remaining. Also, the “human Plasma stability” value in the series “Plasma Stability” (human plasma, remaining at 1 h) turned out to be 98% remaining. Also, the SIF in series [2] (setting [7]) is on record as 99% remaining.

For “(2R)-2-{[(tert-butoxy)carbonyl]amino}-3-methyl-N-{2-[2-(2-{[{{4-oxo-1-[2-(propan-2-yloxy)ethyl]-2-sulfanylidene-1H,2H,3H,4H,5H-pyrrolo[3,2-d]pyrimidin-5-yl}methoxy)carbonyl]oxy}ethoxy)eth-oxy]ethyl}butanamide [Example 377]”, in series [1] (simulated gastric fluid, bare number, unit or time not given), the SGF was 83. Also, in “Plasma Stability” (human plasma, remaining at 1 h), the “human Plasma stability” value was determined as 8% remaining. The SIF in series [2] (simulated intestinal fluid, bare number, unit or time not given) was 11.

As to “({4-oxo-1-[2-(propan-2-yloxy)ethyl]-1H,4H,5H-pyrrolo[3,2-d]pyrimidin-2 yl}sulfanyl)methyl N-butylcarbamate [Example 185]”, the SGF in series [1] (% remaining at 1 h in simulated gastric fluid, the 15th table) is on record as 78% @ 1 h. Also, in the series “Plasma Stability” (% remaining at 1 h in human plasma, the 15th table), the “human Plasma stability” value is on record as 96% @ 1 h. For the same compound, the SIF in series [2] (% remaining at 1 h in simulated intestinal fluid, the 15th table) is reported as 67% @ 1 h.

“N-[2-(2-aminoethoxy)ethyl]-4-oxo-1-[2-(propan-2-yloxy)ethyl]-2-sulfanylidene-1H, 2H,3H,4H,5H-pyrrolo[3,2-d]pyrimidine-5-carboxamide; trifluoroacetic acid [Example 376]”: in series [1] (setting [6]), the SGF is 98% remaining. Besides, in the series “Plasma Stability” (human plasma, remaining at 1 h), the “human Plasma stability” value was determined as 95% remaining. For the same compound, the SIF in series [2] (setting [7]) is reported as 99% remaining.

Take “bis(trifluoroacetic acid) 5-{[2-({[(5-{[(2R)-2-amino-4-methylpentanoyl]oxy}penta-noyl)oxy]methyl}sulfanyl)-4-oxo-1-[2-(propan-2-yloxy)ethyl]-1H,4H,5H-pyrrolo[3,2-d]pyrimidin-5-yl]methoxy}-5-oxopentyl (2R)-2-amino-4-methylpentanoate [Example 351]”: the SGF in series [1] (setting [6]) was 69% remaining. Besides, the “human Plasma stability” value in the series “Plasma Stability” (human plasma, remaining at 1 h) amounted to 99% remaining. The SIF in series [2] (setting [7]) is 14% remaining.

In the case of “butoxy)carbonyl]amino}ethoxy)eth-yl](methyl)carbamoyl}oxy)methyl]sul-fanyl}-4-oxo-1-[2-(propan-2-yloxy)ethyl]-1H,4H,5H-pyrrolo[3,2-d]pyrimidin-5-yl)methoxy]carbonyl}(methyl)ami-no)ethoxy]ethyl}carbamate [Example 381]”, in series [1] (setting [6]), the SGF is reported as 82% remaining. For the same compound, the “human Plasma stability” value in “Plasma Stability” (human plasma, remaining at 1 h) came to 97% remaining. Moreover, the SIF in series [2] (setting [7]) is 97% remaining.
